Laboratory results reported in patent US8349309B2, “Polymeric coupling agents and pharmaceutically-active polymers made therefrom” (Interface Biologics Inc., priority 2004, dated 2013).

Test system: Pseudomonas aeruginosa
Test: Macro-dilution minimum inhibitory concentration (MIC) assay
Assay type: cell-based
Protocol: Minimum inhibitory concentration (MIC) assays were used to evaluate the antimicrobial activity of incubating solutions obtained from drug polymer biodegradation studies against P. aeruginosa. Turbidity of each culture was recorded to evaluate the inhibitory properties of degradation solution of drug polymers.
The same NF polymer incubation solutions assayed via HPLC were also evaluated for antimicrobial activity using a biological assay. A macro-dilution minimum inhibitory concentration (MIC) assay was employed to determine the concentration of antimicrobial (norfloxacin) that would inhibit the growth of a pathogen often associated with device-related infections, Pseudomonas aeruginosa. […] Incubation solutions from both enzyme and buffer control treatment of NF polymer were used in a biological assay matrix that was designed to estimate the concentration of norfloxacin as a function of incubation time and treatment.

Substance: 1-ethyl-6-fluoro-1,4-dihydro-4-oxo-7-piperazine-quinoline-3-carboxylic acid [norfloxacin]
- MIC: 0.8 mu g/mL
